Source: patent publication US20230416248A1, “COMPOUNDS AND USES THEREOF” (Foghorn Therapeutics Inc., priority 2020, published 2023)

Biological target: T1, BRM (Homo sapiens, UniProt P51531)
T1 construct: made in house; host or cells: High Five insect cells
Assay: ATPase catalytic activity of BRM, ADP-Glo in vitro biochemical assay
Details: for IC50: ATPase catalytic activity, ADP-Glo, 30 nM BRM, 400 μM ATP; for Ratio*: ratio of BRG1 IC50 to BRM IC50
Method: The ATPase catalytic activity of BRM or BRG-1 was measured by an in vitro biochemical assay using ADP-Glo™ (Promega, V9102). The ADP-Glo™ kinase assay is performed in two steps once the reaction is complete. The first step is to deplete any unconsumed ATP in the reaction. The second step is to convert the reaction product ADP to ATP, which will be utilized by the luciferase to generate luminesce and be detected by a luminescence reader, such as Envision.
The assay reaction mixture ([…]) contains 30 nM of BRM or BRG-1, 20 nM salmon sperm DNA (from Invitrogen, UfraPure™ Salmon Sperm DNA Solution, cat #15632011), and 400 μM of ATP in the ATPase assay buffer, which comprises of 20 mM Tris, pH 8, 20 mM MgCl2, 50 mM NaCl, 0.1% Tween-20, and 1 mM fresh DTT (Piercer™ DTT (Dithiothreitol), cat #20290). The reaction is initiated by the addition of the 2.5 μL ATPase solution to 2.5 μL ATP/DNA solution on low volume white Proxiplate-384 plus plate (PerkinElmer, cat #6008280) and incubates at room temperature for 1 hour. Then, following addition of 5 μL of ADP-Glo™ Reagent provided in the kit, the reaction incubates at room temperature for 40 minutes. Then, 10 μL of Kinase Detection Reagent provided in the kit is added to convert ADP to ATP, and the reaction incubates at room temperature for 60 minutes. Finally, luminescence measurement is collected with a plate-reading luminometer, such as Envision.

T1 sequence (P51531 whole entry): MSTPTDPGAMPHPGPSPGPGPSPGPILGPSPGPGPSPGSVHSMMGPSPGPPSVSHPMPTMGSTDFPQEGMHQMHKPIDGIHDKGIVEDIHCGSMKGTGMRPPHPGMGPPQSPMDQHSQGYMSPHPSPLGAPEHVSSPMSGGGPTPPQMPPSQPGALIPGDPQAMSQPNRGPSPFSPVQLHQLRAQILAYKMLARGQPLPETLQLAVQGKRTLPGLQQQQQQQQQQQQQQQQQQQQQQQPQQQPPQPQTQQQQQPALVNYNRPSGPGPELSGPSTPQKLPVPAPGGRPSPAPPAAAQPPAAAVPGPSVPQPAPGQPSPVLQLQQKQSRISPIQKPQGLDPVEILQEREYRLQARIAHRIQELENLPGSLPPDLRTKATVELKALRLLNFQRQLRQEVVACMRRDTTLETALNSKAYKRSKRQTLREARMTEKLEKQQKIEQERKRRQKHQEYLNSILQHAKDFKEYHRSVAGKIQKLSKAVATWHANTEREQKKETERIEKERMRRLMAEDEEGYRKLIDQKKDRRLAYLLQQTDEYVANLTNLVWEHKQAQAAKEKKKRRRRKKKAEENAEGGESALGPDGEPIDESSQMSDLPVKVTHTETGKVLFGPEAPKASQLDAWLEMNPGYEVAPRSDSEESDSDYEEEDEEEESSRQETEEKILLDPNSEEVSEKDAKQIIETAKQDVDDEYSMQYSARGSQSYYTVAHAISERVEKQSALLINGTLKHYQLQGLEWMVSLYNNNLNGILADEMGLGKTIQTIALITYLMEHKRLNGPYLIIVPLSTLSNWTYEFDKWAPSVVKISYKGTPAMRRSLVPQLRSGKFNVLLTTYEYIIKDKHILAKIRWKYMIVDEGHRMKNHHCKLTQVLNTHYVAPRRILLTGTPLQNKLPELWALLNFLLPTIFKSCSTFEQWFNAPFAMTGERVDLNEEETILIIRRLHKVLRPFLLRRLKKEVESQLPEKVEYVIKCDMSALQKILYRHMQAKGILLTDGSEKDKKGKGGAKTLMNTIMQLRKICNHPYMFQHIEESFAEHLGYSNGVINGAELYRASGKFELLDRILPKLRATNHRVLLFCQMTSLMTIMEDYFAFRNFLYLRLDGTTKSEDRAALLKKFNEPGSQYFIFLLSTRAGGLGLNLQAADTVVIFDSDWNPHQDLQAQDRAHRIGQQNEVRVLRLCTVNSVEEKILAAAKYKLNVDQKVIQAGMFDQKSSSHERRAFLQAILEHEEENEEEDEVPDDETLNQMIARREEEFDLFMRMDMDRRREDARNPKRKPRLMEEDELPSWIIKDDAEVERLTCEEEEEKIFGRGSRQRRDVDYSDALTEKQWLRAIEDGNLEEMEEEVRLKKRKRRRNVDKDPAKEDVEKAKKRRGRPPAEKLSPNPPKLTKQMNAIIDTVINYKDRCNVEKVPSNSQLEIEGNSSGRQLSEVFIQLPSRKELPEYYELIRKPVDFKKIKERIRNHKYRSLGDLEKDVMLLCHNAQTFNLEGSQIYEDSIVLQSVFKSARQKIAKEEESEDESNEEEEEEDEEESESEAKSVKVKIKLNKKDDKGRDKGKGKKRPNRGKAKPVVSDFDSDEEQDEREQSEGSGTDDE

With `CN1CC[C@@H](Oc2cccc(-c3ccc4cnc(CNC(=O)c5ccc6c(c5)S(=O)(=O)CCOC6)cc4n3)n2)C1` [Compound 328] the IC50 was 843 nM and the “Ratio*” value was 5.93.
For `COc1c(-c2ccc3cnc(CNC(=O)c4ccc5c(c4)S(=O)(=O)CCOC5)cc3n2)cccc1C(F)F` [Compound 343], the IC50 was 1350 nM and the “Ratio*” value was 3.71.
In the case of `C[C@@H]1CN(c2cccc(-c3ccc4cnc(CNC(=O)c5cc(C6(C)CC6)c6c(c5)S(=O)(=O)CCOC6)cc4n3)n2)C[C@H](C)O1` [Compound 351], the “Ratio*” value is reported as 1.00.
`O=C(NCc1cc2nc(N3C(=O)Cc4ccccc43)ccc2cn1)c1ccc2c(c1)S(=O)(=O)CCOC2` [Compound 356] was tested, and the IC50 was 3310 nM and the “Ratio*” value was 1.51.
`CC[C@@H]1COCc2ccc(C(=O)NCc3cc4nc(-c5cccc(N6C[C@@H](C)O[C@@H](C)C6)n5)ccc4cn3)cc2S1(=O)=O` [Compound 359] was tested, and the “Ratio*” value was 1.00.
For `CC[C@H]1COCc2ccc(C(=O)NCc3cc4nc(-c5cccc(N6C[C@@H](C)O[C@@H](C)C6)n5)ccc4cn3)cc2S1(=O)=O` [Compound 360], the IC50 was 974 nM and the “Ratio*” value was 5.14.
`C[C@@H]1CN(c2cccc(-c3ccc4cnc(CNC(=O)c5ccc6c(c5)S(=O)(=O)[C@@H](C)CC6)cc4n3)n2)C[C@H](C)O1` [Compound 363] was tested, and the IC50 was 206 nM and the “Ratio*” value was 24.25.
For `COc1ccc(C(C)(F)F)cc1-c1ccc2cnc(CNC(=O)c3ccc4c(c3)S(=O)(=O)CCOC4)cc2n1` [Compound 368], the “Ratio*” value was 1.00.
In the case of `C[C@@H]1CN(c2cccc(-c3ccc4cnc(CNC(=O)c5cccc(S(=O)(=O)C6CC6)c5)cc4n3)n2)C[C@H](C)O1` [Compound 371], the IC50 is reported as 196 nM and the “Ratio*” value is reported as 25.45.
For `O=C(NCc1cc2nc(-n3cccc(N4CCOCC4)c3=O)ccc2cn1)c1ccc2c(c1)S(=O)(=O)CCOC2` [Compound 401], the IC50 was 1320 nM and the “Ratio*” value was 3.79.
With `CCOc1cc(C)cc(-c2ccc3cnc(CNC(=O)c4ccc5c(c4)S(=O)(=O)[C@@H](C)COC5)cc3n2)n1` [Compound 417] the IC50 was 253 nM and the “Ratio*” value was 19.79.
With `C[C@@H]1CN(c2cccc(-c3ccc4cnc(CNC(=O)c5cc(Cl)c6c(c5)S(=O)(=O)[C@H](C)COC6)cc4n3)n2)C[C@H](C)O1` [Compound 432] the IC50 was 1500 nM and the “Ratio*” value was 3.34.
With `C[C@@H]1COCc2ncc(C(=O)NCc3cc4nc(-c5cccc(C6CC6)n5)ccc4cn3)cc2S1(=O)=O` [Compound 455] the “Ratio*” value was 1.00.
With `C[C@@H]1CN(c2cccc(-c3ccc4cnc(CNC(=O)c5ccc6c(c5)S(=O)(=O)CCO[C@H]6C5CC5)cc4n3)n2)C[C@H](C)O1` [Compound 459] the IC50 was 192 nM and the “Ratio*” value was 25.98.
In the case of `Cc1cc(C(=O)NCc2cc3nc(-c4cccc(N5C[C@@H](C)O[C@@H](C)C5)n4)ccc3cn2)cc2c1OCC[C@@H](C)S2(=O)=O` [Compound 461], the IC50 is reported as 1590 nM and the “Ratio*” value is reported as 3.15.
In the case of `Cc1cc(C(=O)NCc2cc3nc(-c4cccc(N5C[C@@H](C)O[C@@H](C)C5)n4)ccc3cn2)cc2c1COC[C@@H](C)S2(=O)=O` [Compound 462], the IC50 is reported as 1720 nM and the “Ratio*” value is reported as 2.92.
For `C[C@@H]1CN(c2cccc(-c3ccc4cnc(CNC(=O)c5cc(Cl)c6c(c5)S(=O)(=O)[C@H](C)CCO6)cc4n3)n2)C[C@H](C)O1` [Compound 486], the IC50 was 1160 nM and the “Ratio*” value was 4.29.
With `C[C@@H]1CCS(=O)(=O)c2cc(C(=O)NCc3cc4nc(-c5cccc(N6C[C@@H](C)O[C@@H](C)C6)n5)ccc4cn3)cc(Cl)c2O1` [Compound 505] the IC50 was 539 nM and the “Ratio*” value was 9.28.
With `C[C@@H]1CN(c2cccc(-c3ccc4cnc(CNC(=O)c5ccc6c(c5)S(=O)(=O)[C@@H](C)CO[C@@H]6C)cc4n3)n2)C[C@H](C)O1` [Compound 517] the IC50 was 429 nM and the “Ratio*” value was 11.66.
With `C[C@@H]1CN(c2cccc(-c3ccc4cnc(CNC(=O)c5ccc6c(c5)S(=O)(=O)[C@H](C)CO[C@H]6C)cc4n3)n2)C[C@H](C)O1` [Compound 518] the IC50 was 4560 nM and the “Ratio*” value was 1.10.
In the case of `C[C@@H]1CN(c2cccc(-c3ccc4cnc(CNC(=O)c5ccc6c(c5)S(=O)(=O)C5(CC6)CC5)cc4n3)n2)C[C@H](C)O1` [Compound 531], the “Ratio*” value is reported as 28.30.
In the case of `CC1CN(c2cccc(-c3ccc4cnc(CNC(=O)c5ccc6c(c5)S(=O)(=O)C(C)COC6C)cc4n3)n2)CC(C)O1` (stereo not shown) [Compound 535], the IC50 is reported as 637 nM and the “Ratio*” value is reported as 7.84.
`Cc1cc(C(=O)NCc2cc3nc(-c4cccc(N5C[C@@H](C)O[C@@H](C)C5)n4)ccc3cn2)cc2c1O[C@H](C)CCS2(=O)=O` [Compound 541] was tested, and the IC50 was 131 nM and the “Ratio*” value was 38.11.
In the case of `O=C(NCc1cc2nc(N3CCc4nccnc4C3)ccc2cn1)c1ccc2c(c1)S(=O)(=O)CCOC2` [Compound 546], the IC50 is reported as 1820 nM and the “Ratio*” value is reported as 2.75.
With `C[C@@H]1CN(c2cccc(-c3ccc4cnc(CNC(=O)c5cc(Cl)c6c(c5)S(=O)(=O)CCO[C@H]6C)cc4n3)n2)C[C@H](C)O1` [Compound 547] the IC50 was 293 nM and the “Ratio*” value was 17.08.
For `CC1Cc2cccnc2N(c2ccc3cnc(CNC(=O)c4ccc5c(c4)S(=O)(=O)CCOC5)cc3n2)C1` (stereo not shown) [Compound 556], the IC50 was 1700 nM and the “Ratio*” value was 2.94.
`C[C@@H]1CN(c2cccc(-c3ccc4cnc(CNC(=O)c5ccc6c(c5)S(=O)(=O)CCC(C)(C)O6)cc4n3)n2)C[C@H](C)O1` [Compound 559] was tested, and the IC50 was 3930 nM and the “Ratio*” value was 1.27.
`C[C@@H]1CN(c2cccc(-c3ccc4cnc(CNC(=O)c5ccc6c(c5)S(=O)(=O)[C@H](C)CN6C)cc4n3)n2)C[C@H](C)O1` [Compound 560] was tested, and the IC50 was 498 nM and the “Ratio*” value was 10.04.
For `CO[C@H](C)c1ccc2c(n1)N(c1ccc3cnc(CNC(=O)c4ccc5c(c4)S(=O)(=O)CCOC5)cc3n1)CCC2` [Compound 562], the IC50 was 425 nM and the “Ratio*” value was 11.77.
For `O=C(NCc1cc2nc(N3CCCc4ccc(C(F)F)nc43)ccc2cn1)c1ccc2c(c1)S(=O)(=O)CCOC2` [Compound 563], the “Ratio*” value was 16.52.
`O=C(NCc1cc2nc(N3CCCc4ccc(C(F)F)nc43)ccc2cn1)c1ccc2c(c1)S(=O)(=O)CCOC2` [Compound 571] was tested, and the “Ratio*” value was 6.87.
`CC1CN(c2cccc(-c3ccc4cnc(CNC(=O)c5cnc6c(c5)S(=O)(=O)CCC5CC65)cc4n3)n2)CC(C)O1` (stereo not shown) [Compound 577] was tested, and the “Ratio*” value was 3.78.
In the case of `CC1CN(c2cccc(-c3ccc4cnc(CNC(=O)c5cnc6c(c5)S(=O)(=O)CCC5CC65)cc4n3)n2)CC(C)O1` (stereo not shown) [Compound 579], the “Ratio*” value is reported as 4.40.
`C[C@@H]1CN(c2cccc(-c3ccc4cnc(CNC(=O)c5ccc6c(c5)S(=O)(=O)CC[C@H](C(F)F)O6)cc4n3)n2)C[C@H](C)O1` [Compound 582] was tested, and the IC50 was 1240 nM and the “Ratio*” value was 4.05.
In the case of `CC[C@H]1CCS(=O)(=O)c2cc(C(=O)NCc3cc4nc(-c5cccc(N6C[C@@H](C)O[C@@H](C)C6)n5)ccc4cn3)ccc2O1` [Compound 584], the IC50 is reported as 793 nM and the “Ratio*” value is reported as 6.31.
With `C[C@@H]1CN(c2cccc(-c3ccc4cnc(CNC(=O)c5cnc6c(c5)S(=O)(=O)[C@H](C)CC6)cc4n3)n2)C[C@H](C)O1` [Compound 596] the IC50 was 681 nM and the “Ratio*” value was 7.34.
`C[C@@H]1CN(c2cccc(-c3ccc4cnc(CNC(=O)c5cc(C6CCC6)c6c(c5)S(=O)(=O)CCOC6)cc4n3)n2)C[C@H](C)O1` [Compound 631] was tested, and the IC50 was 1190 nM and the “Ratio*” value was 4.19.
In the case of `COC1Cc2cccnc2N(c2ccc3cnc(CNC(=O)c4ccc5c(c4)S(=O)(=O)CCOC5)cc3n2)C1` (stereo not shown) [Compound 633], the IC50 is reported as 2230 nM and the “Ratio*” value is reported as 2.24.
